For 13 compounds, IC50 results are on record in PubChem BioAssay AID651581 (Sanford-Burnham Center for Chemical Genomics, 2012).

pIC50: −log10 of the molar value. Active and inactive are the calls of the source. The rule behind the calls is not given here.

In general, IC50 refers to the concentration that inhibits the measured activity by half. The term pIC50 denotes −log10 of the IC50, conventionally taken in molar units.

The target of test [1] is Endothelial PAS domain-containing protein 1 (Homo sapiens) (UniProt Q99814). The test can be described thus: potency against HIF reporters across cell lines – luminescence, panel, selectivity assay for HIF-2a inhibitor project, dose response (AID 651581). The following applies: human cell HIF reporter.
Test [2] concerns the target Hypoxia-inducible factor 1-alpha (Homo sapiens) (UniProt Q16665). Described as above. Conditions: human cell HIF reporter, HIF-1a.

Sequence of Hypoxia-inducible factor 1-alpha (Homo sapiens) (Q16665 whole entry, looked up): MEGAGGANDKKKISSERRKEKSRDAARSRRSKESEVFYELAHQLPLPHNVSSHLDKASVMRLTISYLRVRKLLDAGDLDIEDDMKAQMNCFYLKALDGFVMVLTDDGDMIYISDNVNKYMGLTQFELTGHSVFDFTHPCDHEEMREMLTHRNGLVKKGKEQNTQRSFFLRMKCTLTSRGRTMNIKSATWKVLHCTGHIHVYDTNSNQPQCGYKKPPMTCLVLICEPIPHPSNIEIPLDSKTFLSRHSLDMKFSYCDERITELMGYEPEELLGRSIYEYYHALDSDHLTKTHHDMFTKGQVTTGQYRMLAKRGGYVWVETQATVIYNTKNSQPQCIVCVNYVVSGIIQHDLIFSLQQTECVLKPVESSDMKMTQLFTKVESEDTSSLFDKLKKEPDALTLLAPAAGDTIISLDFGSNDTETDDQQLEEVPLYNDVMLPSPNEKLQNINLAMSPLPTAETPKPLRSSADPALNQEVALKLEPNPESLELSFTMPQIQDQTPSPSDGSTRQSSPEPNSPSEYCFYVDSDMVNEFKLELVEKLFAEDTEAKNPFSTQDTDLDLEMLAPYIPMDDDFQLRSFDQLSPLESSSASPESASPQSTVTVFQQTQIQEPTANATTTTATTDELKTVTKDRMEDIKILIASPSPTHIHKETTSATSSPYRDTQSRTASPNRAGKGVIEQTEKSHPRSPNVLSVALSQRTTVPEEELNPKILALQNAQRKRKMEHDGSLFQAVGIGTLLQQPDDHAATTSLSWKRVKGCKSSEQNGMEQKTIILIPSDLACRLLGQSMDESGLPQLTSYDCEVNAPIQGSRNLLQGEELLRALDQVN

For the compound `O=C(CCCc1ccccc1)Nc1cccc(C(=O)O)c1`, the IC50 in test [1] (HIF-2a PANC, mean of runs) is > 99 µM (inactive). Further, the pIC50 in test [1] (HIF-2a PANC, run 1) was < 4.00; in test [1] (HIF-2a PANC, run 2), < 4.00; in test [1] (HIF-2a, run 1), 4.77; in test [1] (HIF-2a, run 2), 4.84; in test [2] (run 1), < 4.00; in test [2] (run 2), < 4.00. In addition, the IC50 entry in test [1] (HIF-2a, mean of runs) is “inactive”.

Regarding `Cc1nc(SCc2cccc(C(=O)O)c2)nc2c1CCCC2`, the IC50 entry in test [1] (HIF-2a PANC, mean of runs) is “inactive”. In addition, the pIC50 in test [1] (HIF-2a PANC, run 1) is 5.15; in test [1] (HIF-2a PANC, run 2) it was 4.18; in test [1] (HIF-2a, mean of runs), 5.98; in test [1] (HIF-2a, run 1), 5.89; in test [1] (HIF-2a, run 2), 6.08; in test [2] (mean of runs), 4.98. The values for the pIC50 in test [2] (run 1) and in test [2] (run 2) were 5.41 and 4.77, respectively.

`NCCN1C(=O)S/C(=C\c2ccc3c(c2)OCO3)C1=O`: the IC50 result in test [1] (HIF-2a PANC, mean of runs) is “inactive”. Also, the pIC50 in test [1] (HIF-2a PANC, run 1) was 5.03; in test [1] (HIF-2a PANC, run 2), 5.36; in test [1] (HIF-2a, mean of runs), 5.95; in test [1] (HIF-2a, run 1) it was 5.94; in test [1] (HIF-2a, run 2) it was 5.96; in test [2] (mean of runs), 5.23. For the same compound, the pIC50 is 5.21 in test [2] (run 1) and 5.25 in test [2] (run 2).

On to `Cc1cc(C)cc(C(=O)NC(=S)Nc2ccc(-c3cc4ccccc4oc3=O)cc2)c1`, for which the pIC50 is < 4.00 in test [1] (HIF-2a PANC, run 1); < 4.00 in test [1] (HIF-2a PANC, run 2); < 4.00 in test [1] (HIF-2a, run 1); < 4.00 in test [1] (HIF-2a, run 2); < 4.00 in test [2] (run 1); < 4.00 in test [2] (run 2). Moreover, the IC50 was > 99 µM (inactive) in test [1] (HIF-2a, mean of runs) and > 99 µM (inactive) in test [2] (mean of runs).

Turning to `O=C(CCCc1nc(-c2ccccc2Cl)no1)NC1CCCC1`, the pIC50 is 6.01 in test [1] (HIF-2a PANC, mean of runs); 5.97 in test [1] (HIF-2a PANC, run 1); 6.06 in test [1] (HIF-2a PANC, run 2); 5.98 in test [1] (HIF-2a, mean of runs); 6.00 in test [1] (HIF-2a, run 1); 5.96 in test [1] (HIF-2a, run 2). Moreover, the pIC50 was 5.90 in test [2] (run 1) and 5.74 in test [2] (run 2). Also, the IC50 result in test [2] (mean of runs) was “inactive”.

Regarding `O=C(Nc1ccc(NC(=O)c2cccs2)cc1)c1ccc2c(c1)OCCO2`, the pIC50 in test [1] (HIF-2a PANC, mean of runs) is 5.71; in test [1] (HIF-2a PANC, run 1) it was 5.69; in test [1] (HIF-2a PANC, run 2), 5.75; in test [1] (HIF-2a, run 1), 4.66; in test [1] (HIF-2a, run 2) it was < 4.00; in test [2] (run 1) it was < 4.00. The pIC50 in test [2] (run 2) is < 4.00. Further, the IC50 in test [2] (mean of runs) is > 99 µM (inactive).

As for `O=Cc1ccc(-c2cccs2)s1`, the IC50 in test [1] (HIF-2a PANC, mean of runs) is > 99 µM (inactive). The pIC50 is < 4.00 in test [1] (HIF-2a PANC, run 1); < 4.00 in test [1] (HIF-2a PANC, run 2); 5.26 in test [1] (HIF-2a, mean of runs); 5.26 in test [1] (HIF-2a, run 1); 5.25 in test [1] (HIF-2a, run 2); < 4.00 in test [2] (run 1). In test [2] (run 2), the pIC50 was < 4.00.

Consider `COc1ccc(OCc2cccc(C(=O)NN)c2)cc1`, for which the IC50 in test [1] (HIF-2a PANC, mean of runs) was > 99 µM (inactive). Besides, the pIC50 in test [1] (HIF-2a PANC, run 1) is < 4.00; in test [1] (HIF-2a PANC, run 2) it was < 4.00; in test [1] (HIF-2a, mean of runs) it was 5.10; in test [1] (HIF-2a, run 1), 5.11; in test [1] (HIF-2a, run 2), 5.09; in test [2] (run 1), < 4.00. Besides, the pIC50 in test [2] (run 2) is < 4.00.

As for `N#CCC(=O)N/N=C\c1cccc(OC/C=C/c2ccccc2)c1`, the pIC50 is < 4.00 in test [1] (HIF-2a PANC, run 1); > 4.52 in test [1] (HIF-2a PANC, run 2); > 4.52 in test [1] (HIF-2a, run 1); 5.06 in test [1] (HIF-2a, run 2); < 4.00 in test [2] (run 1); > 4.52 in test [2] (run 2).

`CCC(=O)Nc1cccc(C(=O)c2ccc(C)c(C)c2)c1`: the pIC50 is < 4.00 in test [1] (HIF-2a PANC, run 1); < 4.00 in test [1] (HIF-2a PANC, run 2); < 4.00 in test [1] (HIF-2a, run 1); 5.80 in test [1] (HIF-2a, run 2); < 4.00 in test [2] (run 1); 4.41 in test [2] (run 2).

As to `O=c1[nH]c2ccc(Br)cc2c(=O)o1`, the pIC50 in test [1] (HIF-2a PANC, mean of runs) is 4.32; in test [1] (HIF-2a PANC, run 1), 4.44; in test [1] (HIF-2a PANC, run 2), 4.23; in test [1] (HIF-2a, run 1), 4.72; in test [1] (HIF-2a, run 2) it was 4.70; in test [2] (run 1), < 4.00. The compound further gave a pIC50 in test [2] (run 2) of 4.70. Moreover, in test [1] (HIF-2a, mean of runs), the IC50 result was “inactive”.

With `COc1ccc(CNC(=O)CCc2c(C)nc3cc(-c4ccccc4OC)nn3c2C)cc1`, the pIC50 in test [1] (HIF-2a PANC, run 1) is < 4.00; in test [1] (HIF-2a PANC, run 2) it was 4.93; in test [1] (HIF-2a, mean of runs) it was 5.03; in test [1] (HIF-2a, run 1) it was 5.00; in test [1] (HIF-2a, run 2) it was 5.07; in test [2] (run 1), 4.57. In test [2] (run 2), this compound showed a pIC50 of 5.17. Besides, in test [2] (mean of runs), the IC50 entry was “inactive”.

Regarding `CC(=O)Nc1ccc(Oc2sc(C(=O)c3ccccc3)c(N)c2C#N)cc1`, the IC50 entry is “inactive” in test [1] (HIF-2a PANC, mean of runs); “inactive” in test [1] (HIF-2a, mean of runs); “inactive” in test [2] (mean of runs). Further, the pIC50 in test [1] (HIF-2a PANC, run 1) was 4.33; in test [1] (HIF-2a PANC, run 2), 4.18; in test [1] (HIF-2a, run 1), 4.76; in test [1] (HIF-2a, run 2), 4.96; in test [2] (run 1), 4.56; in test [2] (run 2) it was 4.54.
